Tested on: brain myelination (myelin water fraction)
Test: Cross-sectional correlation analysis (GLM) of infant formula nutrient composition vs brain myelination by mcDESPOT MRI
Format: in vivo, human
Details: children up to 5 years fed different infant formulas during infancy; voxel-wise correlations, p<0.05 corrected; inter-variable correlation threshold 0.9
Method: MRI brain scans of infants and children between 0 and 5 years were acquired using a white matter imaging technique. This technique provides a quantitative measure, the Myelin Water Fraction (MWF), which is a surrogate marker of myelin content. When mapped as a function of time across early childhood, myelination trajectories can be generated.
Infant formula composition: six infant formulas fed to infants participating in study were analyzed for their composition/level of myelin-relevant nutrients.
Infants included in this study were drawn from a larger longitudinal study of normal brain and behavioral development: the Brown university Assessment of Myelination and Behavior Across Maturation (BAMBAM). To focus on neurotypical development, children with known potential risk factors for learning, neurologic, or psychiatric disorders were specifically excluded during recruitment and enrollment. Thus, children with in utero alcohol or illicit substance exposure, premature (<37 weeks gestation) or multiple birth, fetal ultrasound abnormalities, complicated pregnancy (e.g., preeclampsia), APGAR scores <8, NICU admission, neurological disorder (e.g., head injury, epilepsy), psychiatric or developmental disorders in the infant, parents or siblings (including maternal depression requiring medication) were excluded. Ongoing screenings, such as the MCAT for autism, or CBCL for behavioral problems, were further used to remove enrolled children with clinically concerning behaviors or overt medical conditions (such as autism spectrum disorders).
A combination of retrospective and prospective data were acquired from parents via detailed medical histories and parental interview on type of infant formula used, percentage of breastfeeding to formula feeding, and length of exclusive breastfeeding. This information was updated at each study visit, which occurred approximately every 6 months for children under 2 years, and yearly for older children. Using this information, children were categorized into one of 2 groups: #1. Exclusively formula-fed; and #2. Exclusively breastfed for at least 90 days (3 months). Children who were fed a combination of breastmilk and formula within 3 months were excluded from our analysis. Infants within the exclusively formula-fed group were further sub-divided based on parental reports of the main infant formula used throughout the first 3 months. Main formula was defined as that given 90% of the time or more (in the case were parents used an alternate brand during vacation, for example).
Using these criteria, 94 exclusively formula-fed infants and young children were selected into group #1. These included 13 children who received formula #2; 28 who received formula #5; 8 who received formula #3; 39 who received formula #4; 5 who received formula #1 and 1 who received formula #6. A sample of 52 exclusively breast-fed infants were also selected and matched to the over formula-fed group with regards to mean age, gestation duration, birth weight, male:female ratio, ethnicity ratio, maternal education, family size, and number of languages spoken in the home (in addition to English).
Each infant was scanned using the mcDESPOT (multicomponent Driven Equilibrium Single Pulse Observation of T1 and T2) white matter imaging technique Deoni et al. (Magn. Reson. Med. 2008, 60:1372-1387), which provides a quantitative measure of the myelin water fraction (MWF) at each imaging point throughout the brain. All infants were scanned during natural (i.e. non-sedated) sleep using acoustically-muffled mcDESPOT imaging protocols. Total imaging times ranged from 19 minutes for the youngest toddlers to 24 minutes for the older 4 year-old children.

Molecule	nutritional drivers for myelination indicated by the final general linear model
[Mg+2] [Magnesium]	identified drivers
[P] [phosphorus]	identified drivers
[Ca+2] [calcium]	identified drivers
iron	identified drivers
phosphatidylinositol	identified drivers
sphingomyelin	identified drivers
[Zn] [zinc]	identified drivers
phosphatidylcholine	identified drivers
CCCCC/C=C\C/C=C\C/C=C\C/C=C\CCCC(=O)O [ARA, arachidonic acid]	identified drivers

— patent US20180352845A1, “NUTRITIONAL COMPOSITIONS AND INFANT FORMULAS TO PROMOTE MYELINATION IN THE BRAIN” (NESTEC S.A., priority 2015, published 2018)
